These results are taken from patent US12606536B2, “Bioactive phenolate ionic complexes” (priority 2020, dated 2026).

Values after ≈ are worked out from the molar mass of the structure shown. Where a name gives a salt, the structure may show the parent alone.

Broadly, the solubility is the dissolved amount per volume that the medium holds. Lower therefore signals a poorly soluble substance. Broadly, the clearance is a measure of how efficiently the substance is removed, as volume per time. Lower therefore signals a low capacity for elimination. Broadly, the AUC(0-inf) is total exposure, with the tail of the curve extrapolated. As a reminder, the bioavailability is dose-corrected exposure relative to a reference, in per cent. Usually Cmax stands for the highest concentration seen after dosing. The Log P is the decadic logarithm of the partition coefficient of the neutral form, usually between octanol and water. A high value points to a more lipophilic compound.

Data set [1] can be described thus: Regeneration of thymol from thymol-salts in 0.1 N HCl. Type of data set: physicochemical. The settings on record: 0.1N HCl solution (pH = 1), 30 min, heptane extraction. How it is done:
Experimental procedure for regeneration studies: Regeneration studies were performed for 2-isopropyl-5-methylphenolate-salts in the 0.1 N HCl solution (1 pH) followed by extracting free thymol with heptane. The appropriate amount of the corresponding thymol-salt (Table 12) was brought into the 20 mL glass vial. To this, 10 mL of 0.1 N was added. The resultant mixture was kept in a shaker for 30 min. After 30 min of acid treatment, 10 mL of heptane was added to the reaction mixture. The collected organic layer was separated from the water layer and carefully dried using rotavapor followed by drying under a temperature-controlled hot oven at 35° C. for 12 h.

A short description of data set [2]: Water solubility of CBD metal complexes. Type of data set: physicochemical. Here is the method: CBD metal complexes were tested for water solubility (Table 1).
Data set [3] is described as follows: Oxidation stability (air bubbled through and sun light, HPLC). Type of data set: physicochemical. The settings on record: exposed to air bubbled through and sun light for 24 hours. Here is the method: A solution of CBD in ethanol was exposed to air bubbled through and sun light. […] When the CBD metal complexes were exposed to air bubbled through oxidation and sun light for 24 hours, no change in CBD content is found, as determined by HPLC.

A short description of data set [4]: HPLC analysis of regenerated CBD from CBD-Choline (1:1) at pH 1.0. Type of data set: physicochemical. The settings on record: HCl solution pH = 1.0, 30 min, chloroform extraction.
Data set [5] is described as follows: Pharmacokinetics of CBD after IV administration, freely moving rats. Type of data set: in vivo. How it is done: (§1) And dispersed in water to form a nano dispersion of about 30 nanometer. This dispersion was administered to rats by either IV or orally.
For IV administration: Each molecule was dissolved (2% w/w) in pro-nano lipospheres (PNL) formulation (Table 3). Double-distilled water (DDW) was added to a final CBD concentration of 0.2% w/w in the nano-suspension.
Pharmacokinetics (PK) in rats of Cannabidiol (CBD)-choline (Ch) salt following IV and oral administration: Pharmacokinetic study was performed using the freely moving rats model. For intravenously administration a dosage of 1 mg/kg was given (corrections for the salts are in Tables 4 and 5). Two groups were assigned randomly to be administered with either CBD (n=5) or Ch-CBD (n=4). Systemic blood samples (0.35 mL) were taken at 5-min pre-dose and at 5, 15 30 minutes and 1, 1.5, 2, 4, 6, and 8 hr. post dose.
(§2) The oral formulation was administered to the animals by oral gavage with a dosage of 15 mg/kg (corrections for the salts are in Tables 4 and 5). Two groups were assigned randomly to be administered with either CBD (n=5) or Ch-CBD (n=3). Systemic blood samples (0.35 mL) were taken at 5-min pre-dose and at 0.33, 0.66, 1, 1.5, 2, 4, 6, 8 and 10 hr. post dose. To prevent dehydration, equal volumes of physiological solution were administered following each withdrawal of blood sample. Plasma was separated by centrifugation (4000 rpm, 10 min) and stored at −20° C. pending analysis. Plasma aliquots of 150 μL were spiked with 10 μL of internal standard cannabigerol (CBG; 1 μg/mL). ACN (200 μL) was added to each test tube (tubes A) and vortex-mixed for 1 min. The extraction of CBD and CBG was performed by N-hexane (3 mL) that was added to each test tube (tubes A), followed by 1 min. vortex-mixing. After centrifugation at 4000 rpm for 10 min, the n-hexane organic layer was transferred to fresh glass test tubes (tubes B) and evaporated to dryness (Vacuum Evaporation System, Labconco, Kansas City, MO). Then, tubes B were reconstituted in 80 μL of ACN: water (80:20). The resulting solution (80 μl) was injected into the HPLC-MS system. Column used: XTerra MS C18 Column 3.5 μm 2.1×100 mm column (Waters®, Milford, MA). Mobile phase: an isocratic mobile phase of 20:80 (v/v) 2 mM ammonium acetate/acetonitrile. Diluent: 20:80 (v/v) water/acetonitrile. Flow rate: 0.2 mL/min. Column temperature: 35° C.±5° C. Sample Temperature: 20° C.±5° C. The detection masses (m/z): CBG—312.2 and CBD-313.2, with negative electrospray.
(§3) The amounts found in the plasma for the salts were adjusted with the 0.17 correction factor mentioned in Table 6, to resemble dosage of 1 mg/kg for IV administration and 15 mg/kg for oral administration.

A short description of data set [6]: Pharmacokinetics of CBD after oral administration, freely moving rats. Type of data set: in vivo. Here is the method:
as §1
For oral administration: Each molecule was dissolved (5% w/w) in pro-nano lipospheres (PNL) formulation (Table 2). Double-distilled water (DDW) was added to a final CBD concentration of 0.5% w/w in the nano-suspension.
as §2, §3

Data set [7] in a line: Reversibility of CBD salts to CBD on acidification. Type of data set: physicochemical. The note with it: dilute HCl, pH 3; 1H NMR. Here is the method:
1M HCl solution was added dropwise to aqueous solution of CBD-Na until pH of 3 was achieved. […] The ease of reversibility is paramount to the success of this work, as original compounds may be easily reconstituted by a simple chemical process.
For all salts, adding acidic solution such as HCl, convert back the native CBD.

For data set [8] the following is noted: octanol/water.
The conditions of data set [9]: NMR.
The conditions of data set [10]: PO 12 mg/kg semaglutide; for T0.5 of semaglutide: n = 3. Here is the method: All compounds are powders and each material ratio is by mass.
Animals are anesthetized for the period of surgery. An indwelling cannula is placed in the right jugular vein of each animal for systemic blood sampling. The cannula is tunnelled beneath the skin and exteriorized at the dorsal part of the neck. After completion of the surgical procedure, the animals are transferred to individual cages to recover overnight (12-18 h). During said recovery period, food, but not water, is deprived if an oral absorption experiment is conducted. Throughout the experiments, free access to food is available 4 h post oral administration.
Animals are randomly assigned to the different experimental groups. […] Systemic blood samples (0.36 ml) are obtained by intravenous cannula, placed in the jugular vein. In the case of oral administration, samples are taken at 5 minutes pre-dose and at different time points post dose, according to the pharmacokinetic profile (blood will be drawn no more than 10% of rat blood volume). To prevent dehydration, equal volumes of physiological solution are administered to the rats following each blood sampling. Plasma is separated by centrifugation (4000 rpm, 7 minutes, 4 °C) and stored at −20° C. pending analysis. Plasma samples were analyzed by a developed LC-MS method for Semaglutide.
PK parameters were extracted from the data in a semi-logarithmic scale. […] It is further important to mention that the formulations were prepared by mass ratios.
AUC0-∞^# was calculated for infinity by using the terminal slope.

In a further data set the test system is mold. The data set is described as follows: Hay bale packed in coated packaging. The note with it: after 2 weeks; control bale became moldy. An excerpt: The copper and zinc-thymol salts were incorporated in polystyrene foam, in a hydrogel during their manufacturing and in coating material of potato seeds and hay packaging material. Moreover, the thymol copper was incorporated in polyethylene sheets during melt extrusion. The salts were incorporated in these formulations while thymol could not be incorporated due to its evaporation rate and low melting point. Thymol was constantly released to air over a period of 3 weeks while protecting the hay from microbial contamination.
In a typical experiment, fresh hay was packed with thymol coated and copper-thymol salt coated packaging. After 2 weeks, the control bale became moldy.

Another data set concerns various viruses. The note with it: plants in polystyrene trays containing the salt; blank trays heavily infected.

Excerpt for various viruses: These trays were used for planting tomato plants contaminated with various viruses.

As for “2Na(2-isopropyl-5-methylphenolate)4Zn [Thymol salt 2Na4Zn]”, in data set [1], the “% of thymol regenerated” value is reported as 74%.
In turn, `C=C(C)[C@@H]1CCC(C)=C[C@H]1c1c(O)cc(CCCCC)cc1O` [CBD, cannabidiol] returned a solubility in data set [2] (water) of 0.0126 mg/mL (≈ 40.1 µM). In addition, the “Change in CBD content” value in [3] is on record as “decrease in CBD content”. Moreover, in data set [4], the “CBD regenerat. (%)” value turned out to be 100.00%. For the same compound, the T0.5 in data set [5] (IV 1 mg/kg in PNL, n = 5) was determined as 1.45 h; in [6] (PO 15 mg/kg in PNL, n = 5) it was 1.05 ± 0.46 h. In addition, the clearance in [5] (rat, plasma, IV 1 mg/kg in PNL, n = 5) is 3.38 L/h/kg. In addition, the Vd in [5] (rat, plasma, IV 1 mg/kg in PNL, n = 5, read-out: Volume of distribution) was determined as 7.02 L/kg. In addition, the AUC(0-inf) is 0.3 µg·h/mL in [5] (rat, CBD in plasma, IV 1 mg/kg in PNL formulation suspended (X10) in water, until 8 hours, n = 5) and 0.846 ± 0.321 µg·h/mL in data set [6] (rat, plasma, PO 15 mg/kg in PNL, calculated for infinity by the terminal slope, n = 5). Moreover, the bioavailability in [6] (rat, plasma, PO 15 mg/kg in PNL, calculated using data of CBD in PNL by IV administration, read-out: Fabs (%) (Absolute bioavailability)) is 18.8 ± 7.1%. For the same compound, in data set [6] (rat, plasma, PO 15 mg/kg in PNL, n = 5), the Cmax amounted to 0.2 ± 0.0795 µg/mL. In data set [6] (rat, CBD in plasma, PO 15 mg/kg in PNL formulation suspended (X10) in water, until 10 hours, n = 5, read-out: AUC0-10), the AUC(0-t) was determined as 0.841 ± 0.319 µg·h/mL.
For `C=C(C)C1CCC(C)=CC1c1c(O)cc(CCCCC)cc1O` (stereo not shown) [CBD-Choline (1:1) salt], the entries for the “CBD regenerat. (%)” value in data set [4] and in data set [4] (listed as CBD-Choline (1:1)) were 67.01% and “about 67.0%”, respectively.
In the case of `C=C(C)C1CCC(C)=CC1c1c([O-])cc(CCCCC)cc1[O-].C[N+](C)(C)CCO.C[N+](C)(C)CCO` (stereo not shown) [CBD-Choline], the “Conversion back to CBD on acidification” value in data set [7] is recorded as “successfully regenerated”. In addition, the T0.5 in [5] (IV, MS correction (0.17), PNL, n = 4) was determined as 0.98 h; in data set [5] (IV, MW adjustment (0.6), PNL, n = 4), 1.07 h; in data set [6] (PO, MS correction (0.17), n = 3), 1.37 ± 0.47 h; in [6] (PO, MW adjustment (0.6), n = 3), 1.37 ± 0.47 h. Moreover, in data set [5] (rats, IV), the “Blood levels after IV compared with CBD” value is reported as “comparable”. The “Log P” value in [8] is recorded as 1.71.
Compound `C=C(C)C1CCC(C)=CC1c1c([O-])cc(CCCCC)cc1[O-].[K+].[K+]` (stereo not shown) [CBD-K] displayed a Solubility in water in data set [2] of 2 mg/mL.
In data set [2], `C=C(C)C1CCC(C)=CC1c1c([O-])cc(CCCCC)cc1[O-].[Na+].[Na+]` (stereo not shown) [CBD-Na] came in with a Solubility in water of 10 mg/mL. The “Conversion back to CBD on acidification” value in [7] is on record as “confirmed by ^1H NMR to be CBD”.
In the case of `O=C([O-])CCCCCCCNC(=O)c1ccccc1O.[Na+]` [SNAC, Salcaprozate Sodium], in [9], the “Behaviour on reducing the pH to acidic pH (1.2)” value is “precipitated”.
For the compound `C[N+](C)(C)CCO.O=C([O-])CCCCCCCNC(=O)c1ccccc1[O-].[Na+]` [SNAC-CH], the T0.5 of semaglutide in [10] came out at 2.62 ± 0.35 h.
For the compound `O=C([O-])CCCCCCCNC(=O)c1ccccc1O.[Na+]` [SNAC-Na], in data set [10], the “Semaglutide absorption compared with the SNAC formulation” value is “didn't contribute to the semaglutide absorption”.
Take `O=C([O-])CCCCCCCNC(=O)c1ccccc1[O-].[Na+].[Na+]` [SNAC-Na]: in data set [10], the T0.5 of semaglutide was determined as 2.26 ± 1.07 h.
`Cc1ccc(C(C)C)c(O)c1` [Thymol salt Copper (II), copper(II) 2-isopropyl-5-methylphenolate]: the “% of thymol regenerated” value in data set [1] (listed as Copper (II)) is listed as 72%. Also, the “Mold on hay bale” value with mold is reported as “has not shown any mold”.
`Cc1ccc(C(C)C)c(O)c1` [Thymol salt Ferrous (II), ferrous (II) 2-isopropyl-5-methylphenolate]: the “% of thymol regenerated” value in [1] amounted to 97%.
As for `Cc1ccc(C(C)C)c([O-])c1.[Li+]` [Thymol salt Lithium, lithium 2-isopropyl-5-methylphenolate], the “% of thymol regenerated” value in data set [1] was 63%.
On the same count and under the same terms, next, `Cc1ccc(C(C)C)c([O-])c1.[K+]` [Thymol salt Potassium, potassium 2-isopropyl-5-methylphenolate]: 57%.
Take `Cc1ccc(C(C)C)c(O)c1` [Thymol salt Silver, silver 2-isopropyl-5-methylphenolate]: the “% of thymol regenerated” value in data set [1] (listed as Silver) was 57%.
For the compound `Cc1ccc(C(C)C)c([O-])c1.[Na+]` [Thymol salt Sodium, sodium 2-isopropyl-5-methylphenolate], the “% of thymol regenerated” value in [1] worked out at 68%.
In the case of `CCCC[N+](CCCC)(CCCC)CCCC` [Thymol salt Tetrabutylammonium, tetrabutylammonium 2-isopropyl-5-methylphenolate], the “% of thymol regenerated” value in [1] is given as 94%.
For `Cc1ccc(C(C)C)c(O)c1` [Thymol salt Zinc (II), zinc(II) 2-isopropyl-5-methylphenolate], the “% of thymol regenerated” value in data set [1] (listed as Zinc (II)) worked out at 59%.
Turning to `O=C([O-])c1ccccc1.O=C([O-])c1ccccc1.[Cu+2]` [copper benzoate], the “Infection of tomato plants” value with various viruses was “did not demonstrate any infection”.
In the case of “manganese (II) 2-isopropyl-5-methylphenolate [Thymol salt Manganese(II)]”, the “% of thymol regenerated” value in data set [1] turned out to be 77%.
